The test addresses T1, Sodium- and chloride-dependent glycine transporter 1 (Homo sapiens, UniProt P48067).
T1 sequence (P48067 whole entry): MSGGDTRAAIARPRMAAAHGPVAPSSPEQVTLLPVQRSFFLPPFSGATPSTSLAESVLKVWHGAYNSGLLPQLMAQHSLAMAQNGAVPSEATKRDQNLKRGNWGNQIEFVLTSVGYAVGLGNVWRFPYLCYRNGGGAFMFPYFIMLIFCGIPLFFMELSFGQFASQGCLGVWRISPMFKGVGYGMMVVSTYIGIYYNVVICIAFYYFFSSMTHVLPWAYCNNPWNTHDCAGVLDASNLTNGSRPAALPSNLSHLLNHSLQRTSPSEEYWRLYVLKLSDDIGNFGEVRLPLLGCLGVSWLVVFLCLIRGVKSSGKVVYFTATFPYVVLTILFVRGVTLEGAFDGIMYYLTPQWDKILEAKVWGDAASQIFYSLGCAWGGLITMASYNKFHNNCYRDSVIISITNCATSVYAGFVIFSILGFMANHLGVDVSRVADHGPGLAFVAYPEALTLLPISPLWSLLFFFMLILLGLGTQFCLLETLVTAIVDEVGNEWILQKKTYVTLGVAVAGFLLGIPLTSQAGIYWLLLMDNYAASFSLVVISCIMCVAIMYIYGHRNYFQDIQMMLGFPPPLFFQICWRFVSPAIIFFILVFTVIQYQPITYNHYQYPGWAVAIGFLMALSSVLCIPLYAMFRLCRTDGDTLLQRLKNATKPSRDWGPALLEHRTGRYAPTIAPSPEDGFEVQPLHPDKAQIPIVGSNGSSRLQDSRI

Experimental findings from ChEMBL document CHEMBL5209588, “Membrane potential based assay for SLC6A9 using HEK-293 SLC6A9 OE cells” (2022) are described below.

What is called EC50 is the concentration needed to bring the measured effect to its halfway point. A higher EC50 goes with weaker potency.

Description: Substrate uptake and inhibition of the Glycine Transporter-1 (GlyT1, SLC6A9) as assessed by the fluorescent FLIPR membrane potential dye in HEK-293 JumpIN-SLC6A9 cells (PubChem AID: 1794809)

`NCC(=O)O` [GLYCINE] came in with an EC50 of 106 µM.
